Assay results taken from US20240067693A1, “POLYPEPTIDES AND USES THEREOF” (MEDIMMUNE LIMITED, priority 2020, published 2024).
Numbered stars: 1 amine (or outer) side, 2 acyl side, 3 side chain; on linkers, the order of the positions; unused ones are H or OH. Bridge positions count the residues as written; N and C are the ends. Square brackets hold non-standard residues; d marks the D form. Side chains are listed from the residue outwards. Peptide text beside a SMILES is read from it. * marks the point of attachment. C18 diacid = O=C(O)CCCCCCCCCCCCCCCCC(=O)*; γGlu = O=C(O)[C@H](CCC(=O)[*:2])N[*:1]; Aib = CC(C)(N)C(=O)O

Columns and labels:
[1] = biological target: T1, human amylin receptor (calcitonin receptor co-expressed with receptor activity modifying protein, RAMP3) (hAMYR3) (Homo sapiens, UniProt O60896+P30988); experiment: cAMP production in 1321N1 cells with stable recombinant expression of human amylin receptor (hAMYR3); type: cell-based; settings: for Ratio (selectivity hAMYR vs hCTR, ratio of EC50 values at the two receptors): EC50 hCTR / EC50 hAMYR3; for EC50: cAMP, 1321N1 cells, assay buffer with 0.1% BSA, read-out: EC50 (pM) hAMYR3
T1 construct: expressed in transfected cells
T1 sequence (P30988 25-474): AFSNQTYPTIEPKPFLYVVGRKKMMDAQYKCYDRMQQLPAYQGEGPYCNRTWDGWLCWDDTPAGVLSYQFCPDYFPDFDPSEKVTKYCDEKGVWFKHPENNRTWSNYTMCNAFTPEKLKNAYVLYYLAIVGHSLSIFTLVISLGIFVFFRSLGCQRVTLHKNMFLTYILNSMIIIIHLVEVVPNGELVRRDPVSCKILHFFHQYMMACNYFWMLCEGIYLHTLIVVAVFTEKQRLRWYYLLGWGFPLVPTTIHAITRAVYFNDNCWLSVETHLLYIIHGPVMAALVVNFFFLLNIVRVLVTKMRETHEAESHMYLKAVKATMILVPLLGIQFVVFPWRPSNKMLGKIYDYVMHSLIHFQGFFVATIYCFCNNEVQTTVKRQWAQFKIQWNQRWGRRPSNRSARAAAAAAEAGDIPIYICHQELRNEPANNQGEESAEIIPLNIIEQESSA
T1 sequence (O60896 24-148 partner): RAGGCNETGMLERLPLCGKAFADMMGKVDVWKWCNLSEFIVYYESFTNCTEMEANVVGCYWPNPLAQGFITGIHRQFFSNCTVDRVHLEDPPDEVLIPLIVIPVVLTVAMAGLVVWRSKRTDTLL
Method in brief: (§1)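 Receptor-expressing cells (human receptors in 1321N1, rat receptors in HEK) incubated 30 min at room temperature with peptide in HBSS/HEPES pH 7.4, 0.1% BSA, 0.5 mM IBMX. cAMP read by HTRF; EC50 from 4-parameter fit as % of maximal amylin or calcitonin response.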

[2] = biological target: T2, human calcitonin receptor (hCTR) (Homo sapiens, UniProt P30988); experiment: cAMP production in 1321N1 cells with stable recombinant expression of human calcitonin receptor (hCTR); type: cell-based; settings: cAMP, 1321N1 cells, assay buffer with 0.1% BSA; read-out: EC50 (pM) hCTR
T2 construct: expressed in transfected cells
T2 sequence (P30988 25-474): T1 sequence (P30988 25-474)
Method in brief: as §1

| Compound | Ratio (selectivity hAMYR vs hCTR, ratio of EC50 values at the two receptors) [1] | EC50 [1] [pM] | EC50 [2] [pM] |
| --- | --- | --- | --- |
| CC[C@H](C)[C@H](NC(=O)[C@@H]1CCCN1C(=O)CNC(=O)[C@H](Cc1ccccc1)NC(=O)[C@H](CC(N)=O)NC(=O)C(C)(C)NC(=O)[C@H](CO)NC(=O)[C@H](CO)NC(=O)[C@H](Cc1c[nH]cn1)NC(=O)[C@H](CCCNC(=N)N)NC(=O)[C@H](CC(C)C)NC(=O)[C@H](Cc1ccccc1)NC(=O)[C@H](CC(N)=O)NC(=O)[C@H](C)NC(=O)[C@H](CC(C)C)NC(=O)[C@H](CCCNC(=N)N)NC(=O)[C@H](CCC(N)=O)NC(=O)[C@@H](NC(=O)[C@H](C)NC(=O)[C@@H]1CSSC[C@H](NC(=O)[C@@H](N)CCCCNC(=O)CC[C@H](NC(=O)CC[C@H](NC(=O)CCCCCCCCCCCCCCCCC(=O)O)C(=O)O)C(=O)O)C(=O)N[C@@H](CC(N)=O)C(=O)N[C@@H]([C@@H](C)O)C(=O)N[C@@H](C)C(=O)N[C@@H]([C@@H](C)O)C(=O)N1)[C@@H](C)O)C(=O)N[C@@H](CC(C)C)C(=O)N1CCC[C@H]1C(=O)N1CCC[C@H]1C(=O)N[C@H](C(=O)N[C@@H](CCCNC(=N)N)C(=O)N[C@H](C(=O)NCC(=O)N[C@@H](CO)C(=O)N[C@@H](CC(N)=O)C(=O)N[C@H](C(=O)N[C@@H](Cc1ccc(O)cc1)C(N)=O)[C@@H](C)O)C(C)C)[C@@H](C)O [Peptide 77, K(γE-γE-C18diacid)[CNTATC]ATQRLANFLRHSS(Aib)NFGPILPPTRVGSNTY-amide] (H-K([γGlu-γGlu-C18 diacid])CNTATCATQRLANFLRHSS[Aib]NFGPILPPTRVGSNTY-NH2; disulfide 2-7; N-terminus assumed) | 11 | 231 | 2520 |
| CC(C)C[C@H](NC(=O)[C@H](CCCNC(=N)N)NC(=O)[C@H](CCC(N)=O)NC(=O)[C@@H](NC(=O)[C@H](C)NC(=O)[C@@H]1CSSC[C@H](NC(=O)[C@H](CCCCN)NC(=O)[C@@H](N)CCCCNC(=O)CC[C@H](NC(=O)CCCCCCCCCCCCCCCCC(=O)O)C(=O)O)C(=O)N[C@@H](CC(N)=O)C(=O)N[C@@H]([C@@H](C)O)C(=O)N[C@@H](C)C(=O)N[C@@H]([C@@H](C)O)C(=O)N1)[C@@H](C)O)C(=O)N[C@@H](C)C(=O)N[C@@H](CC(N)=O)C(=O)N[C@@H](Cc1ccccc1)C(=O)N[C@@H](CC(C)C)C(=O)N[C@H](C(=O)N[C@@H](Cc1c[nH]cn1)C(=O)N[C@@H](CO)C(=O)N[C@@H](CO)C(=O)NC(C)(C)C(=O)N[C@@H](CC(N)=O)C(=O)N[C@@H](Cc1ccccc1)C(=O)NCC(=O)N1CCC[C@H]1C(=O)NC(C)(C)C(=O)N[C@@H](CC(C)C)C(=O)N1CCC[C@H]1C(=O)N1CCC[C@H]1C(=O)N[C@H](C(=O)N[C@@H](CC(N)=O)C(=O)N[C@H](C(=O)NCC(=O)N[C@@H](CO)C(=O)N[C@@H](CC(N)=O)C(=O)N[C@H](C(=O)N[C@@H](Cc1ccc(O)cc1)C(N)=O)[C@@H](C)O)C(C)C)[C@@H](C)O)C(C)C [Peptide 78, K(γE-C18diacid)K[CNTATC]ATQRLANFLVHSS(Aib)NFGP(Aib)LPPTNVGSNTY-amide] (H-K([γGlu-C18 diacid])KCNTATCATQRLANFLVHSS[Aib]NFGP[Aib]LPPTNVGSNTY-NH2; disulfide 3-8; N-terminus assumed) | 11 | 288 | 3150 |
